Test results as given in patent publication US9540343B2 (Gilead Sciences, Inc., priority 2011, dated 2017).

How the values were obtained:
HIV-IIIb = assay: Test A: Antiviral assay in MT4 cells; assay type: cell-based, HIV-1; conditions: Human immunodeficiency virus 1, IIIB, MT4, 120 h, read-out: % inhibition at 2 μM, percent inhibition of virus-induced cell killing, from dose response curve at 2 uM drug; MT-4 cells infected with HIV-IIIb, 5 days, CellTiter-Glo
in vitro = assay: in vitro
In short: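 Cytoprotection read-out: CellTiter-Glo chemiluminescence after 5 days at 37 °C of HIV-IIIb-infected MT-4 cells (m.o.i. 0.003) with compound in 10-point 3-fold dilutions, quadruplicate, 10% FBS. Cytotoxicity (CC50) measured identically without virus.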

[1] = human, uninfected MT-4 cells, CC50 (nM), same protocol as Test A, CellTiter-Glo

Row | Structure (SMILES) | inhibition at 2 µM (HIV-IIIb) [%] | CC50 at 5 days (in vitro; [1]) [nM] | CC50 at 5 days (in vitro; human, CC50 (nM), uninfected MT-4 cells, same protocol as Test A, CellTiter-Glo) [nM]
1 | CC(C)(C)OC(=O)Nc1ccc2[nH]cc(CC(=O)N[C@@H](Cc3cc(F)cc(F)c3)c3ncccc3-c3cccc(C(N)=O)c3)c2c1 [Example 496B, (S)-tert-butyl 3-(2-(1-(3-(3-carbamoylphenyl)pyridin-2-yl)-2-(3,5-difluorophenyl)ethylamino)-2-oxoethyl)-1H-indol-5-ylcarbamate] | 17 | 18400 | –
2 | CCOC(=O)c1nn(CC(=O)N[C@@H](Cc2cc(F)cc(F)c2)c2ncccc2-c2ccc(F)c(C(N)=O)c2)c2c1C1CCC2C1 (stereo partly drawn) [Example 90F, (S)-5-(2-(2-(3,5-difluorophenyl)-1-(2-(4,5,6,7-tetrahydro-3-carboethoxy-4,7-(methano)indazol-1-yl)acetamido)ethyl)pyridin-3-yl)-2-fluorobenzamide] | 13 | 34600 | –
3 | O=C(Cc1c[nH]c2ccc(O)cc12)N[C@@H](Cc1cc(F)cc(F)c1)c1ncccc1-c1ccc(F)cc1 [Example 113, (S)—N-(2-(3,5-difluorophenyl)-1-(3-(4-fluorophenyl)pyridin-2-yl)ethyl)-2-(5-hydroxy-1H-indol-3-yl)acetamide] | 78 | 22300 | –
4 | NC(=O)c1cc(-c2cccnc2[C@H](Cc2cc(F)cc(F)c2)NC(=O)Cn2cc(C3CC3)c(C(F)(F)F)n2)ccc1F [Example 276, (S)-5-(2-(1-(2-(4-cyclopropyl-3-(trifluoromethyl)-1H-pyrazol-1-yl)acetamido)-2-(3,5-difluorophenyl)ethyl)pyridin-3-yl)-2-fluorobenzamide] | 29 | 16900 | –
5 | NC(=O)c1cc(-c2cccnc2[C@H](Cc2cc(F)cc(F)c2)NC(=O)Cn2nc(C(F)(F)F)cc2C2CC2)ccc1F [Example 138, (S)-5-(2-(1-(2-(5-cyclopropyl-3-(trifluoromethyl)-1H-pyrazol-1-yl)acetamido)-2-(3,5-difluorophenyl)ethyl)pyridin-3-yl)-2-fluorobenzamide] | 30 | 24500 | –
6 | NC(=O)c1cc(-c2cccnc2[C@H](Cc2cc(F)cc(F)c2)NC(=O)Cn2nc(C(F)F)c3c2C(=O)CCC3)ccc1F [Example 370, (S)-5-(2-(1-(2-(3-(difluoromethyl)-7-oxo-4,5,6,7-tetrahydro-1H-indazol-1-yl)acetamido)-2-(3,5-difluorophenyl)ethyl)pyridin-3-yl)-2-fluorobenzamide] | 33 | 22700 | –
7 | CCc1c(C2CC2)c(C(F)(F)F)nn1CC(=O)N[C@@H](Cc1cc(F)cc(F)c1)c1ncccc1-c1ccc(F)c(C(N)=O)c1 [Example 343, (S)-5-(2-(1-(2-(4-cyclopropyl-5-ethyl-3-(trifluoromethyl)-1H-pyrazol-1-yl)acetamido)-2-(3,5-difluorophenyl)ethyl)pyridin-3-yl)-2-fluorobenzamide] | 62 | 15500 | –
8 | O=C(Cn1nc(C(F)(F)F)c2c1CCCC2)N[C@@H](Cc1cc(F)cc(F)c1)c1ncccc1-c1ccc(N2CCCC2)nc1 [Example 432, (S)—N-(2-(3,5-difluorophenyl)-1-(6′-(pyrrolidin-1-yl)-3,3′-bipyridin-2-yl)ethyl)-2-(3-(trifluoromethyl)-4,5,6,7-tetrahydro-1H-indazol-1-yl)acetamide] | 90 | 7990 | –
9 | O=C(Cn1[nH]c(=O)c2c1CCCC2)N[C@@H](Cc1cc(F)cc(F)c1)c1ncccc1-c1ccc(Cl)cc1 [Example 146, (S)—N-(1-(3-(4-chlorophenyl)pyridin-2-yl)-2-(3,5-difluorophenyl)ethyl)-2-(3-oxo-2,3,4,5,6,7-hexahydro-1H-indazol-1-yl)acetamide] | 66 | 20600 | –
10 | CCCCC(C(=O)N[C@@H](Cc1cc(F)cc(F)c1)c1ncccc1-c1ccc(F)c(C(N)=O)c1)n1ccc(C(F)(F)F)n1 (single isomer, unassigned) [Example 487C] | 10 | 9710 | –
11 | NC(=O)c1cc(-c2cccnc2[C@H](Cc2cc(F)cc(F)c2)NC(=O)Cn2nc3c(c2C(F)F)CC2CC32)ccc1F (stereo partly drawn) [Example 160, 5-(2-((1S)-1-(2-(3-(difluoromethyl)-4,4-a,5,5a-tetrahydro-2H-cyclopropa[4,5]cyclopenta[1,2-c]pyrazol-2-yl)acetamido)-2-(3,5-difluorophenyl)ethyl)pyridin-3-yl)-2-fluorobenzamide] | 45 | 29300 | –
12 | NC(=O)c1cc(-c2cccnc2[C@H](Cc2cc(F)cc(F)c2)NC(=O)COc2ccnc(Cl)c2)ccc1F [Example 332B, (S)-5-(2-(1-(2-(2-chloropyridin-4-yloxy)acetamido)-2-(3,5-difluorophenyl)ethyl)pyridin-3-yl)-2-fluorobenzamide] | 2 | 40000 | –
13 | CNc1ccc(-c2cccnc2[C@H](Cc2cc(F)cc(F)c2)NC(=O)Cn2nc(C(F)F)c3c2C(F)(F)CCC3(F)F)cn1 [Example 287E, (S)-2-(3-(difluoromethyl)-4,4,7,7-tetrafluoro-4,5,6,7-tetrahydro-1H-indazol-1-yl)-N-(2-(3,5-difluorophenyl)-1-(6′-(methylamino)-3,3′-bipyridin-2-yl)ethyl)acetamide] | 98 | 16000 | –
14 | NC(=O)c1cc(-c2cccnc2[C@H](Cc2cc(F)cc(F)c2)NC(=O)Cn2ccnc2-c2ccccc2)ccc1F [Example 149, (S)-5-(2-(2-(3,5-difluorophenyl)-1-(2-(2-phenyl-1H-imidazol-1-yl)acetamido)ethyl)pyridin-3-yl)-2-fluorobenzamide] | 2 | > 53200 | –
15 | NC(=O)c1cccc(-c2cccnc2[C@H](Cc2cc(F)cc(F)c2)NC(=O)CC2C(=O)Nc3ccc(F)cc32)c1 (stereo partly drawn) [Example 196, 3-(2-((1S)-2-(3,5-difluorophenyl)-1-(2-(5-fluoro-2-oxoindolin-3-yl)acetamido)ethyl)pyridin-3-yl)benzamide] | 2 | 29600 | –
16 | CC(=O)c1cn(CC(=O)N[C@@H](Cc2cc(F)cc(F)c2)c2ncccc2-c2cccc(C(N)=O)c2)c2ccccc12 [Example 500, (S)-3-(2-(1-(2-(3-acetyl-1H-indol-1-yl)acetamido)-2-(3,5-difluorophenyl)ethyl)pyridin-3-yl)benzamide] | 59 | – | 24300
17 | NC(=O)c1cc(-c2cccnc2[C@H](Cc2cc(F)cc(F)c2)NC(=O)Cn2ncc3c2CCCC3)ccc1F [Example 471, (S)-5-(2-(2-(3,5-difluorophenyl)-1-(2-(4,5,6,7-tetrahydro-1H-indazol-1-yl)acetamido)ethyl)pyridin-3-yl)-2-fluorobenzamide] | 62 | > 53200 | –
18 | O=C(Cn1nc(C(F)(F)F)c2c1CCCC2)N[C@@H](Cc1cc(F)cc(F)c1)c1ncccc1-c1cccc(OC(F)(F)F)c1 [Example 84, (S)—N-(2-(3,5-difluorophenyl)-1-(3-(3-(trifluoromethoxy)phenyl)pyridin-2-yl)ethyl)-2-(3-(trifluoromethyl)-4,5,6,7-tetrahydro-1H-indazol-1-yl)acetamide] | 18 | 9050 | –
19 | Cc1ccccc1-c1cccnc1C(Cc1cc(F)cc(F)c1)NC(=O)Cn1nc(C(F)(F)F)c2c1CCCC2 (stereo not drawn) [Example 4, N-(2-(3,5-difluorophenyl)-1-(3-o-tolylpyridin-2-yl)ethyl)-2-(3-(trifluoromethyl)-4,5,6,7-tetrahydro-1H-indazol-1-yl)acetamide] | 69 | 10300 | –
20 | NC(=O)c1cc(-c2cncnc2[C@H](Cc2cc(F)cc(F)c2)NC(=O)Cn2nc(C(F)F)c3c2C(F)(F)CCC3(F)F)ccc1F [Example 308, (S)-5-(4-(1-(2-(3-(difluoromethyl)-4,4,7,7-tetrafluoro-4,5,6,7-tetrahydro-1H-indazol-1-yl)acetamido)-2-(3,5-difluorophenyl)ethyl)pyrimidin-5-yl)-2-fluorobenzamide] | 102 | 39800 | –
21 | Cc1ccccc1-c1ccnc(C(Cc2ccccc2)NC(=O)Cc2c[nH]c3ccc(O)cc23)n1 (stereo not drawn) [Example 9E, 2-(5-hydroxy-1H-indol-3-yl)-N-(2-phenyl-1-(4-o-tolylpyrimidin-2-yl)ethyl)acetamide] | 0 | 35900 | –
22 | NC(=O)c1cc(-c2cccnc2[C@H](Cc2cc(F)cc(F)c2)NC(=O)Cn2ccc3cc(Cl)ccc32)ccc1F [Example 585, (S)-5-(2-(1-(2-(5-chloro-1H-indol-1-yl)acetamido)-2-(3,5-difluorophenyl)ethyl)pyridin-3-yl)-2-fluorobenzamide] | 58 | 13700 | –
23 | NC(=O)c1cc(-c2cccnc2[C@H](Cc2cc(F)cc(F)c2)NC(=O)Cn2cc(CNC3CC3)c(C(F)(F)F)n2)ccc1F [Example 335, (S)-5-(2-(1-(2-(4-((cyclopropylamino)methyl)-3-(trifluoromethyl)-1H-pyrazol-1-yl)acetamido)-2-(3,5-difluorophenyl)ethyl)pyridin-3-yl)-2-fluorobenzamide] | 3 | 51100 | –
24 | NC(=O)c1cc(-c2cccnc2[C@H](Cc2cc(F)cc(F)c2)NC(=O)Cn2nc(C(F)(F)F)c3c2C(F)(F)CCC3=O)ccc1F [Example 340B, (S)-5-(2-(1-(2-(7,7-difluoro-4-oxo-3-(trifluoromethyl)-4,5,6,7-tetrahydro-1H-indazol-1-yl)acetamido)-2-(3,5-difluorophenyl)ethyl)pyridin-3-yl)-2-fluorobenzamide] | 32 | 32800 | –
